Source: patent US20090137549A1, “Novel compounds useful for the treatment of degenerative & inflamatory diseases” (priority 2006, published 2009)

Target: PDE1A (Homo sapiens, UniProt P54750)
Assay: PDE1A dose response, Cyclic Nucleotide Phosphodiesterase Assay Kit from Biomol (colorimetric)
Type: biochemical
Conditions: purified PDE1A enzyme, 100 μM cAMP
Outline: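 Purified PDE1A hydrolysed 100 μM cAMP with 5′-nucleotidase in Tris 20 mM pH 7.4 with calmodulin, Ca2+, Mg2+, 45 min at 37° C. Released phosphate read by malachite-green absorbance at 615 nm. Duplicate 8-point 1/3 dilutions from 20 μM, 1% DMSO; 10 μM vardenafil defined 100% inhibition.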

An IC50 of 101 to 500 nM was found for `CC(C)(C)n1ncc2c(=O)[nH]c(C3CN(CC(=O)Nc4ccccc4)C3)nc21` [Example 173, 2-(3-(1-tert-Butyl-4-oxo-4,5-dihydro-1H-pyrazolo[3,4-d]pyrimidin-6-yl)azetidin-1-yl)-N-phenylacetamide] in this work.

An IC50 of 1000 to 1500 nM was found for `COc1ccccc1NC(=O)N1CCCC(c2nc3c(c(C)nn3C3CCCCC3)c(=O)[nH]2)C1` (stereo not shown) [Example 99, 3-(1-cyclohexyl-3-methyl-4-oxo-4,5-dihydro-1H-pyrazolo[3,4-d]pyrimidin-6-yl)-N-(2-methoxyphenyl)piperidine-1-carboxamide] in this work.

An IC50 of 101 to 500 nM was found for `Cc1nn(C2CCCCC2)c2nc(C3CN(C(=O)OC(C)(C)C)C3)[nH]c(=O)c12` [Example 123, tert-butyl 3-(1-cyclohexyl-3-methyl-4-oxo-4,5-dihydro-1H-pyrazolo[3,4-d]pyrimidin-6-yl)azetidine-1-carboxylate] in this work.

An IC50 of 101 to 500 nM was found for `O=c1[nH]c(C2CN(/C(=C\[N+](=O)[O-])NCC3CCCCC3)C2)nc2c1cnn2C1CCCCC1` [Example 180, 1-Cyclohexyl-6-(1-(1-(cyclohexylmethylamino)-2-nitrovinyl)azetidin-3-yl)-1H=pyrazolo[3,4-d]pyrimidin-4(5H)-one] in this work.

An IC50 of 1000 to 1500 nM was found for `N#Cc1ccc(C(=O)N2CCCC(c3nc4c(cnn4-c4ccccc4)c(=O)[nH]3)C2)cc1` (stereo not shown) [Example 110, 4-(3-(4-oxo-1-phenyl-4,5-dihydro-1H-pyrazolo[3,4-d]pyrimidin-6-yl)piperidine-1-carbonyl)benzonitrile] in this work.

An IC50 of 1000 to 1500 nM was found for `O=c1[nH]c(C2CCCN(S(=O)(=O)c3ccc(OC(F)(F)F)cc3)C2)nc2c1cnn2C1CCCCC1` (stereo not shown) [Example 105, 1-cyclohexyl-6-(1-(4-(trifluoromethoxy)phenylsulfonyl)piperidin-3-yl)-1H-pyrazolo[3,4-d]pyrimidin-4(5H)-one] in this work.

An IC50 of 1 to 100 nM was found for `Nc1cc(N2CC(c3nc4c(cnn4C4CCCCC4)c(=O)[nH]3)C2)ccc1[N+](=O)[O-]` [Example 146, 6-(1-(3-amino-4-nitrophenyl)azetidin-3-yl)-1-cyclohexyl-1H-pyrazolo[3,4-d]pyrimidin-4(5H)-one] in this work.

An IC50 of 1 to 100 nM was found for `O=c1[nH]c(C2CN(c3nc4ccccc4[nH]3)C2)nc2c1cnn2C1CCCCC1` [Example 125, 1-Cyclohexyl-6-(1-(1H-benzo[d]imidazol-2-yl)azetidin-3-yl)-1H-pyrazolo[3,4-d]pyrimidin-4-(5H)-one] in this work.

An IC50 of 101 to 500 nM was found for `COc1ccc(N2CC(c3nc4c(cnn4C4CCCCC4)c(=O)[nH]3)C2)cc1` [Example 165, 1-cyclohexyl-6-(1-(4-methoxyphenyl)azetidin-3-yl)-1H-pyrazolo[3,4-d]pyrimidin-4(5H)-one] in this work.

An IC50 of 1 to 100 nM was found for `O=C(Oc1ccc(F)cc1)N1CC(c2nc3c(cnn3C3CCCCC3)c(=O)[nH]2)C1` [Example 121, 4-fluorophenyl 3-(1-cyclohexyl-4-oxo-4,5-dihydro-1H-pyrazolo[3,4-d]pyrimidin-6-yl)azetidine-1-carboxylate] in this work.

An IC50 of 501 to 1000 nM was found for `COc1ccccc1C(=O)N1CCCC(c2nc3c(c(C)nn3-c3ccccc3)c(=O)[nH]2)C1` (stereo not shown) [Example 90, 6-(1-(2-methoxybenzoyl)piperidin-3-yl)-3-methyl-1-phenyl-1H-pyrazolo[3,4-d]pyrimidin-4(5H)-one] in this work.

An IC50 of 101 to 500 nM was found for `O=C(NC1CC1)N1CC(c2nc3c(cnn3C3CCCCC3)c(=O)[nH]2)C1` [Example 69, 3-(1-cyclohexyl-4-oxo-4,5-dihydro-1H-pyrazolo[3,4-d]pyrimidin-6-yl)-N-cyclopropylazetidine-1-carboxamide] in this work.

An IC50 of 1 to 100 nM was found for `CC(C)(C)n1ncc2c(=O)[nH]c(C3CN(C(=O)Oc4cccc(Cl)c4)C3)nc21` [Example 118, 3-chlorophenyl 3-(1-tert-butyl-4-oxo-4,5-dihydro-1H-pyrazolo[3,4-d]pyrimidin-6-yl)azetidine-1-carboxylate] in this work.

An IC50 of 101 to 500 nM was found for `COc1ccccc1C(=O)N1CCCC(c2nc3c(cnn3-c3ccccc3)c(=O)[nH]2)C1` (stereo not shown) [Example 65, 6-(1-(2-methoxybenzoyl)piperidin-3-yl)-1-phenyl-1H-pyrazolo[3,4-d]pyrimidin-4(5H)-one] in this work.

An IC50 of 1 to 100 nM was found for `Cc1nn(C(C)(C)C)c2nc(C3CN(C(=O)Nc4ccccc4)C3)[nH]c(=O)c12` [Example 6, 3-(1-tert-butyl-3-methyl-4-oxo-4,5-dihydro-1H-pyrazolo[3,4-d]pyrimidin-6-yl)-N-phenylazetidine-1-carboxamide] in this work.

An IC50 of 501 to 1000 nM was found for `O=C(N1CCOCC1)N1CC(c2nc3c(cnn3C3CCCCC3)c(=O)[nH]2)C1` [Example 94, 1-cyclohexyl-6-(1-(morpholine-4-carbonyl)azetidin-3-yl)-1H-pyrazolo[3,4-d]pyrimidin-4(5H)-one] in this work.

An IC50 of 101 to 500 nM was found for `O=c1[nH]c(C2CN(c3ncc(CN4CCCCCC4)s3)C2)nc2c1cnn2C1CCCCC1` [Example 138, 6-(1-(5-(azepan-1-ylmethyl)thiazol-2-yl)azetidin-3-yl)-1-cyclohexyl-1H-pyrazolo[3,4-d]pyrimidin-4(5H)-one] in this work.

An IC50 of 101 to 500 nM was found for `N#Cc1ccccc1N1CC(c2nc3c(cnn3C3CCCCC3)c(=O)[nH]2)C1` [Example 150, 2-(3-(1-cyclohexyl-4-oxo-4,5-dihydro-1H-pyrazolo[3,4-d]pyrimidin-6-yl)azetidin-1-yl)benzonitrile] in this work.

An IC50 of 101 to 500 nM was found for `COC(=O)c1ccc(C(=O)N2CCCC(c3nc4c(c(C)nn4C4CCCCC4)c(=O)[nH]3)C2)cc1` (stereo not shown) [Example 66, methyl 4-(3-(1-cyclohexyl-3-methyl-4-oxo-4,5-dihydro-1H-pyrazolo[3,4-d]pyrimidin-6-yl)piperidine-1-carbonyl)benzoate] in this work.

An IC50 of 1 to 100 nM was found for `CC(C)c1ccc(NC(=O)N2CC(c3nc4c(cnn4C4CCCCC4)c(=O)[nH]3)C2)cc1` [Example 18, 3-(1-cyclohexyl-4-oxo-4,5-dihydro-1H-pyrazolo[3,4-d]pyrimidin-6-yl)-N-(4-isopropylphenyl)azetidine-1-carboxamide] in this work.

An IC50 of 1 to 100 nM was found for `Cc1nn(C(C)(C)C)c2nc(C3CN(C(=O)NCc4ccc(F)cc4)C3)[nH]c(=O)c12` [Example 17, 3-(1-tert-butyl-3-methyl-4-oxo-4,5-dihydro-1H-pyrazolo[3,4-d]pyrimidin-6-yl)-N-(4-fluorobenzyl)azetidine-1-carboxamide] in this work.

An IC50 of 101 to 500 nM was found for `O=c1[nH]c(C2CN(c3nnc(-c4ccccc4)o3)C2)nc2c1cnn2C1CCCCC1` [Example 133, 1-cyclohexyl-6-(1-(5-phenyl-1,3,4-oxadiazol-2-yl)azetidin-3-yl)-1H-pyrazolo[3,4-d]pyrimidin-4(5H)-one] in this work.

An IC50 of 101 to 500 nM was found for `CC(C)N1CCCC(NC(=O)N2CC(c3nc4c(cnn4C4CCCCC4)c(=O)[nH]3)C2)C1` (stereo not shown) [Example 183, 3-(1-Cyclohexyl-4-oxo-4,5-dihydro-1H-pyrazolo[3,4-d]pyrimidin-6-yl)-azetidine-1-carboxylic acid (1-isopropyl-piperidin-3-yl)-amide] in this work.

An IC50 of 101 to 500 nM was found for `CN(C)c1cccc(C(=O)N2CCCC(c3nc4c(cnn4C4CCCCC4)c(=O)[nH]3)C2)c1` (stereo not shown) [Example 45, 1-cyclohexyl-6-(1-(3-(dimethylamino)benzoyl)piperidin-3-yl)-1H-pyrazolo[3,4-d]pyrimidin-4(5H)-one] in this work.

An IC50 of 1 to 100 nM was found for `Cc1nn(C2CCCCC2)c2nc(C3CN(C(=O)NCc4ccc(Cl)c(Cl)c4)C3)[nH]c(=O)c12` [Example 39, 3-(1-cyclohexyl-3-methyl-4-oxo-4,5-dihydro-1H-pyrazolo[3,4-d]pyrimidin-6-yl)-N-(3,4-dichlorobenzyl)azetidine-1-carboxamide] in this work.

An IC50 of 1 to 100 nM was found for `O=c1[nH]c(C2CN(c3ccc(CN4CCOCC4)cc3)C2)nc2c1cnn2C1CCCCC1` [Example 155, 1-Cyclohexyl-6-[1-(4-morpholin-4-ylmethyl-phenyl)-azetidin-3-yl]-1,5-dihydro-pyrazolo[3,4-d]pyrimidin-4-one] in this work.

An IC50 of 1000 to 1500 nM was found for `Cc1nn(C2CCCCC2)c2nc(C3CCCN(S(=O)(=O)c4ccccc4Cl)C3)[nH]c(=O)c12` (stereo not shown) [Example 100, 6-(1-(2-chlorophenylsulfonyl)piperidin-3-yl)-1-cyclohexyl-3-methyl-1H-pyrazolo[3,4-d]pyrimidin-4(5H)-one] in this work.

An IC50 of 1 to 100 nM was found for `CN(C)c1cccc(NC(=O)N2CC(c3nc4c(cnn4C4CCCCC4)c(=O)[nH]3)C2)c1` [Example 7, 3-(1-cyclohexyl-4-oxo-4,5-dihydro-1H-pyrazolo[3,4-d]pyrimidin-6-yl)-N-(3-(dimethylamino)phenyl)azetidine-1-carboxamide] in this work.

An IC50 of 101 to 500 nM was found for `Cc1nn(C2CCCCC2)c2nc(C3CCCN(C(=O)c4ccc(N(C)C)cc4)C3)[nH]c(=O)c12` (stereo not shown) [Example 59, 1-cyclohexyl-6-(1-(4-(dimethylamino)benzoyl)piperidin-3-yl)-3-methyl-1H-pyrazolo[3,4-d]pyrimidin-4(5H)-one] in this work.

An IC50 of 1 to 100 nM was found for `O=C(NC1CCCCC1)N1CC(c2nc3c(cnn3C3CCCCC3)c(=O)[nH]2)C1` [Example 23, N-cyclohexyl-3-(1-cyclohexyl-4-oxo-4,5-dihydro-1H-pyrazolo[3,4-d]pyrimidin-6-yl)azetidine-1-carboxamide] in this work.

An IC50 of 1 to 100 nM was found for `COc1ccc(CNC(=O)N2CC(c3nc4c(c(C)nn4C4CCCCC4)c(=O)[nH]3)C2)cc1` [Example 28, 3-(1-cyclohexyl-3-methyl-4-oxo-4,5-dihydro-1H-pyrazolo[3,4-d]pyrimidin-6-yl)-N-(4-methoxybenzyl)azetidine-1-carboxamide] in this work.

An IC50 of 101 to 500 nM was found for `COc1ccc(S(=O)(=O)N2CCCC(c3nc4c(cnn4C4CCCCC4)c(=O)[nH]3)C2)cc1` (stereo not shown) [Example 51, 1-cyclohexyl-6-(1-(4-methoxyphenylsulfonyl)piperidin-3-yl)-1H-pyrazolo[3,4-d]pyrimidin-4(5H)-one] in this work.

An IC50 of 1000 to 1500 nM was found for `Cc1nn(C2CCCCC2)c2nc(C3CCCN(S(=O)(=O)c4ccccc4OC(F)(F)F)C3)[nH]c(=O)c12` (stereo not shown) [Example 107, 1-cyclohexyl-3-methyl-6-(1-(2-(trifluoromethoxy)phenylsulfonyl)piperidin-3-yl)-1H-pyrazolo[3,4-d]pyrimidin-4(5H)-one] in this work.

An IC50 of 101 to 500 nM was found for `CC(=O)Nc1ccc(N2CC(c3nc4c(cnn4C4CCCCC4)c(=O)[nH]3)C2)cc1` [Example 167, N-(4-(3-(1-cyclohexyl-4-oxo-4,5-dihydro-1H-pyrazolo[3,4-d]pyrimidin-6-yl)azetidin-1-yl)phenyl)acetamide] in this work.
